# Laboratory results: patent EP0213571A2, “3-Aminomethyl pyrrol-1-yl-alkyl amines and medicaments containing these compounds” (BASF Aktiengesellschaft, priority 1985, dated 1987)
# Test system: Histamin-H₂-Rezeptor
# Assay: Antagonism of the dimaprit-induced fall in blood pressure in the anaesthetised rat, test substance given i.v.
# Format: in vivo, Ratten (Stamm: Sprague-Dawley, männlich)
# Procedure: Sie kann in 1 bis 4 Dosen/Tag aufgeteilt werden.
# Zum Nachweis der Histamin-H₂-Rezeptor-blockierenden Wirkung wird folgende Methode angewendet.
# Die Applikation der geprüften Substanzen erfolgt intravenös 5 min vor der Dimaprit-Injektion. Als ED 50 % werden die Dosen ermittelt, welche die Dimaprit-Blutdrucksenkung um 50 % hemmen.
smiles,measurement,setting,value
"CN(C)CCCSC(=N)N [Dimaprit, S-[3-(N,N-dimethylamino)propyl]isothio urea]",Blutdrucksenkungen,"Dimaprit 3,16 mg/kg i.v. alone, anaesthetised rats, mean, baseline pressure 100 ± 1, 1 mmHg, N = 70","27 ± 0,7 mmHg"
CNC(=NC#N)NCCCCn1c(C)ccc1C [Verbindung des Beispiels 12],Histamin-H₂-Rezeptoren-blockierende Wirkung,"result in words, potency compared with Cimetidin, b35 names no test, assigned to the only test described",wesentlich schwächer wirksam als Cimetidin
CNC(=NC#N)NCCSCc1nc[nH]c1C [Cimetidin],Hemmung der Dimaprit-Blutdrucksenkung,"anaesthetised rats (urethane 1,78 g/kg i.p.), substance i.v. 5 min before Dimaprit 3,16 mg/kg i.v.",hemmen diese Dimaprit-Blutdrucksenkung dosisabhängig
